Measured values from patent US11897925B2, “Treatment of homologous recombination deficient cancers” (Sinai Health System, priority 2020, dated 2024).

Legend:
[1] = system: DLD1 BRCA2−/− cells; assay: Micronuclei (MNi) assay after B6L induction; format: cell-based, human; conditions: BRCA2−/− cells held in G2 with RO-3306 prior to release in mitosis
Procedure: For TOPBP1 rescue experiments, DLD1 wild-type and BRCA2^−/− cells stably expressing 2×HA-TOPBP1 were generated by viral transduction and selection with blasticidin (7.5 μg/mL for parental cells, 10 μg/mL for BRCA2^−/− cells). 3 days after transduction with sgRNA viral particles (as described in the clonogenic survival assays), cells were seeded in a 96-well plate (1,500 for wild-type cells; 4,000 for BRCA2^−/− cells) and cultured for 4 additional days. For inducible B6L expression experiments, DLD1 and MDA-MB-436 cells were seeded in a 96-well plate (1,500 for DLD1 wild-type cells; 4,000 for DLD1 BRCA2^−/− cells; 14,000 for MDA-MB-436) and cultured for up to 4 days in the presence of Aqua-Shield-1.
For detection of micronuclei, cells were fixed with 2% PFA, washed 3 times with PBS, permeabilized with 0.3% Triton X-100 in PBS for 5 min, washed 3 times with PBS, incubated for 1 h with PBS+DAPI (0.5 μg/mL). Alternatively, cells were stained for immunofluorescence (CENPA detection). After the last wash with PBS, images were acquired on an IN Cell Analyzer 6000 automated microscope (GE Life Sciences) with a 40× objective. Micronuclei were automatically detected and counted using the Columbus analysis tool (PerkinElmer).

[2] = system: U2OS cells; assay: CIP2A/TOPBP1 mitotic foci and filaments after aphidicolin; format: cell-based, human; conditions: 400 nM aphidicolin, 16 h; wild type and MDC1−/− U2OS; mostly independent of MDC1
Procedure: For the experiments relating to the mitotic structures labelled by CIP2A and TOPBP1, U2OS wild-type and MDC1^-/- cell lines were seeded on coverslips and either treated with 400 nM aphidicolin for 16 h (overnight) or left untreated. In order to perform immunofluorescence, cells were quickly washed once with cold PBS and then fixed with ice-cold methanol for 10 min on ice. Methanol was discarded and cells were washed two times with PBS before incubation with blocking buffer (10% FBS in PBS) for at least 1 h. Incubation with primary antibodies diluted in 5% FBS-PBS was performed overnight at 4° C. in a humidity chamber. Coverslips were then washed 3×10 min with blocking buffer and incubated with AlexaFluor-conjugated secondary antibodies for 1 h at room temperature in the dark. After washing 3×10 min with PBS, coverslips were mounted on glass microscopy slides (Thermo Scientific, 630-1985, dimensions […]×[…] mm) with […] mounting medium containing 0.5 μg/mL (DAPI) (Vector Laboratories, H-1200). Confocal images were acquired using a Leica SP8 inverse confocal laser scanning microscope with a 63×, 1.4-NA Plan-Apochromat oil-immersion objective. […] Images were recorded using optimal pixel size based on Nyquist criterion. […] Quantification of the foci was performed manually based on maximum intensity projections. […]

Structure (SMILES) | B6L-induced micronucleation after holding cells in G2 [1] | frequency of CIP2A-TOPBP1 foci and filaments in mitotic cells [2]
O=C1NC(=NCc2cccs2)S/C1=C\c1ccc2ncccc2c1 [RO-3306] | completely suppressed B6L-induced micronucleation | 
C[C@@]1(CO)[C@H](O)CC[C@@]2(C)[C@H]1CC[C@H]1C[C@@H]3C[C@@]12CC[C@]3(O)CO [aphidicolin] |  | increased
